These compounds were tested against Cytochrome P450 3A4 (Homo sapiens, UniProt P08684) (assay: log (1/Km) value for human liver microsome cytochrome P450 3A4). Conditions: microsomes.
Sequence of Cytochrome P450 3A4 (P08684 whole entry): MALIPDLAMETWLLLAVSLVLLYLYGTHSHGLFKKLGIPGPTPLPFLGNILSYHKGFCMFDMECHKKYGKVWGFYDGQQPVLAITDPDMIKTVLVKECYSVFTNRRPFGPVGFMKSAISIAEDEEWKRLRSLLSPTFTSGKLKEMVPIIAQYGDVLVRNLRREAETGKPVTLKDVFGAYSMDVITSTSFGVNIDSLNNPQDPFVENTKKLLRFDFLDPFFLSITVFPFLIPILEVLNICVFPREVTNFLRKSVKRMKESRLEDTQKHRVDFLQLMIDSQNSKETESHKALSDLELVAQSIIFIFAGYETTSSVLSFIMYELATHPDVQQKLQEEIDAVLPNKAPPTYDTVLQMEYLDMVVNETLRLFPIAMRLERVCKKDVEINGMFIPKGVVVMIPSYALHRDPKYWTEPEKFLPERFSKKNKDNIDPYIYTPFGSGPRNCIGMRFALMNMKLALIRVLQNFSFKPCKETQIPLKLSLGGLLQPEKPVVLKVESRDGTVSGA

Q: Which “Log 1/Km” value does the source give for `CC/C(=C(\c1ccccc1)c1ccc(OCCN(C)C)cc1)c1ccccc1` [TAMOXIFEN] here?
A: Its value is -1.9912.

Q: For `CO[C@H]1C[C@@H]2CC[C@@H](C)[C@@](O)(O2)C(=O)C(=O)N2CCCC[C@H]2C(=O)O[C@H]([C@H](C)C[C@@H]2CC[C@@H](O)[C@H](OC)C2)CC(=O)[C@H](C)/C=C(\C)[C@@H](O)[C@@H](OC)C(=O)[C@H](C)C[C@H](C)/C=C/C=C/C=C/1C` [SIROLIMUS], which “Log 1/Km” value is on record?
A: The value was -0.9069.

Q: Which “Log 1/Km” value does the source give for `CN(C)c1ccc([C@H]2C[C@@]3(C)[C@@H](CC[C@@]3(O)/C=C\CO)[C@@H]3CCC4=CC(=O)CCC4=C32)cc1` [LILOPRISTONE] here?
A: The value was -0.9445.

Q: `CC[C@]1(O)C[C@@H]2CN(CCc3c([nH]c4ccccc34)[C@@](C(=O)OC)(c3cc4c(cc3OC)N(C)[C@H]3[C@@](O)(C(=O)OC)[C@H](OC(C)=O)[C@]5(CC)C=CCN6CC[C@]43[C@@H]65)C2)C1` [VINBLASTINE] was tested. Which “Log 1/Km” value did it give?
A: The value was -0.834.

Q: For `CN(C)c1ccc([C@H]2C[C@]3(C)[C@@H](CC[C@]3(O)CCCO)C3CCC4=CC(=O)CCC4=C32)cc1` (single isomer, unassigned) [ONAPRISTONE], which “Log 1/Km” value is on record?
A: The value was -1.2923.

Q: Which “Log 1/Km” value does the source give for `O=[N+]([O-])c1ccc2ccc3cccc4ccc1c2c34` [1-NITROPYRENE] here?
A: The value was -0.5185.

Q: How did the “Log 1/Km” value turn out when `CN1C(=O)CN=C(c2ccccc2F)c2cc([N+](=O)[O-])ccc21` [FLUNITRAZEPAM] was run?
A: The value was -2.1892.

Q: With `ClC(Cl)Br` [BROMODICHLOROMETHANE] as the compound, how does the “Log 1/Km” value read?
A: The value was -1.4472.

Q: For `CN(C)CCCC1(c2ccc(F)cc2)OCc2cc(C#N)ccc21` (stereo not drawn) [CITALOPRAM], which “Log 1/Km” value is on record?
A: Its value is -2.4548.

Q: For `CC[C@H]1OC(=O)[C@H](C)[C@@H](O[C@H]2C[C@@](C)(OC)[C@@H](O)[C@H](C)O2)[C@H](C)[C@@H](O[C@@H]2O[C@H](C)C[C@H](N(C)C)[C@H]2O)[C@](C)(O)C[C@@H](C)C(=O)[C@H](C)[C@@H](O)[C@]1(C)O` [ERYTHROMYCIN], which “Log 1/Km” value is on record?
A: Its value is -1.7853.

Q: Which “Log 1/Km” value does the source give for `CC[C@H]1OC(=O)[C@H](C)[C@@H](O[C@H]2C[C@@](C)(OC)[C@@H](O)[C@H](C)O2)[C@H](C)[C@@H](O[C@@H]2O[C@H](C)C[C@H](N(C)C)[C@H]2O)[C@](C)(OC)C[C@@H](C)C(=O)[C@H](C)[C@@H](O)[C@]1(C)O` [CLARITHROMYCIN] here?
A: Its value is -1.6875.

Q: Which “Log 1/Km” value does the source give for `CC(C)(C)NCC(O)COc1cccc2c1CCC(=O)N2` (stereo not drawn) [CARTEOLOL] here?
A: The value was -1.8432.

Q: Which “Log 1/Km” value does the source give for `CCCCN1CCCC[C@@H]1C(=O)Nc1c(C)cccc1C` [BUPIVACAINE] here?
A: Its value is -2.0967.

Q: Which “Log 1/Km” value does the source give for `CCc1c2c(nc3ccc(OC(=O)N4CCC(N5CCCCC5)CC4)cc13)-c1cc3c(c(=O)n1C2)COC(=O)[C@]3(O)CC` [IRINOTECAN] here?
A: The value was -1.2648.

Q: Which “Log 1/Km” value does the source give for `O=C(N[C@H](/C=C/S(=O)(=O)c1ccccc1)CCc1ccccc1)[C@H](Cc1ccccc1)NC(=O)N1CCOCC1` here?
A: The value was -1.4843.

Q: `CS(=O)(=O)O.C[C@@H]1C[C@H]2[C@@H]3CCC4=CC(=O)C=C[C@]4(C)C3=CC[C@]2(C)[C@H]1C(=O)CN1CCN(c2cc(N3CCCC3)nc(N3CCCC3)n2)CC1` [TIRILAZAD MESYLATE] was tested. Which “Log 1/Km” value did it give?
A: Its value is -0.2601.

Q: With `CC(c1cc2ccccc2s1)N(O)C(N)=O` (stereo not drawn) [ZILEUTON] as the compound, how does the “Log 1/Km” value read?
A: Its value is -2.1938.

Q: With `C[C@]12CCC(=O)C=C1CC[C@@H]1[C@@H]2[C@@H](O)C[C@@]2(C)[C@H]1CC[C@]2(O)C(=O)CO` [HYDROCORTISONE] as the compound, how does the “Log 1/Km” value read?
A: The value was -1.1818.

Q: How did the “Log 1/Km” value turn out when `C=CC[C@@H]1/C=C(\C)C[C@H](C)C[C@H](OC)[C@H]2O[C@@](O)(C(=O)C(=O)N3CCCC[C@H]3C(=O)O[C@H](/C(C)=C/[C@@H]3CC[C@@H](O)[C@H](OC)C3)[C@H](C)[C@@H](O)CC1=O)[C@H](C)C[C@@H]2OC` [TACROLIMUS ANHYDROUS] was run?
A: Its value is -0.792.

Q: For `C[C@H](CCC(=O)NCCS(=O)(=O)O)[C@H]1CC[C@H]2[C@@H]3[C@H](O)C[C@@H]4C[C@H](O)CC[C@]4(C)[C@H]3CC[C@]12C` [TAUROCHENODEOXYCHOLATE], which “Log 1/Km” value is on record?
A: Its value is -1.9542.

Q: Which “Log 1/Km” value does the source give for `CC(=O)O[C@@]12CO[C@@H]1C[C@H](O)[C@@]1(C)C(=O)[C@H](O)C3=C(C)[C@@H](OC(=O)[C@H](O)[C@@H](NC(=O)OC(C)(C)C)c4ccccc4)C[C@@](O)([C@@H](OC(=O)c4ccccc4)[C@H]21)C3(C)C.O.O.O` [DOCETAXEL] here?
A: Its value is -0.0414.

Q: With `Nc1ccc(S(=O)(=O)c2ccc(N)cc2)cc1` [DAPSONE] as the compound, how does the “Log 1/Km” value read?
A: Its value is -2.2304.

Q: For `Cc1c(C)c2c(c(C)c1O)CCC(C)(COc1ccc(CC3SC(=O)NC3=O)cc1)O2` (stereo not drawn) [TROGLITAZONE], which “Log 1/Km” value is on record?
A: Its value is -2.7918.

Q: With `CC[C@]1(O)C[C@@H]2CN(CCc3c([nH]c4ccccc34)[C@@](C(=O)OC)(c3cc4c(cc3OC)N(C)[C@H]3[C@@](O)(C(N)=O)[C@H](O)[C@]5(CC)C=CCN6CC[C@]43[C@@H]65)C2)C1` [VINDESINE] as the compound, how does the “Log 1/Km” value read?
A: The value was -1.3927.

Q: With `CC(C)(C)c1cc(CC2SCNC2=O)cc(C(C)(C)C)c1O` (stereo not drawn) [TAZOFELONE] as the compound, how does the “Log 1/Km” value read?
A: Its value is -0.996.

Q: With `Cc1nnc2n1-c1ccc(Cl)cc1C(c1ccccc1)=NC2` [ALPRAZOLAM] as the compound, how does the “Log 1/Km” value read?
A: Its value is -2.4232.

Q: Which “Log 1/Km” value does the source give for `CN(C)Cc1nnc2n1-c1ccc(Cl)cc1C(c1ccccc1)=NC2` [ADINAZOLAM] here?
A: Its value is -1.9628.

Q: How did the “Log 1/Km” value turn out when `CC(=O)O[C@H]1C(=O)[C@@]2(C)[C@H]([C@H](OC(=O)c3ccccc3)[C@]3(O)C[C@H](OC(=O)[C@H](O)[C@@H](NC(=O)c4ccccc4)c4ccccc4)C(C)=C1C3(C)C)[C@]1(OC(C)=O)CO[C@@H]1C[C@@H]2O` [PACLITAXEL] was run?
A: The value was -1.2553.

Q: How did the “Log 1/Km” value turn out when `COc1ccc2[nH]c([S+]([O-])Cc3ncc(C)c(OC)c3C)nc2c1` (stereo not drawn) [OMEPRAZOLE] was run?
A: Its value is -1.6902.

Q: `CO[C@H]1/C=C/O[C@@]2(C)Oc3c(C)c(O)c4c(c3C2=O)C2=NC3(CCN(CC(C)C)CC3)NC2=C(NC(=O)/C(C)=C\C=C\[C@H](C)[C@H](O)[C@@H](C)[C@@H](O)[C@@H](C)[C@H](OC(C)=O)[C@@H]1C)C4=O` [RIFABUTIN] was tested. Which “Log 1/Km” value did it give?
A: Its value is -1.0373.

Q: Which “Log 1/Km” value does the source give for `C/C=C1/C[C@@H](C)[C@@](C)(O)C(=O)OCC2=CCN3CC[C@@H](OC1=O)[C@@H]23` [SENECIONINE] here?
A: The value was -2.4772.

Q: With `CN1[C@@H]2CC[C@H]1C[C@@H](NC(=O)c1cc(Cl)cc3c1OC(C)(C)C3)C2` [ZATOSETRON] as the compound, how does the “Log 1/Km” value read?
A: The value was -2.3901.

Q: How did the “Log 1/Km” value turn out when `O=c1[nH]c2ccccc2n1C1CCN(CCCC(c2ccc(F)cc2)c2ccc(F)cc2)CC1` [PIMOZIDE] was run?
A: The value was -0.7559.

Q: With `C/C=C/c1ccc(OC)c(CN[C@H]2C3CCN(CC3)[C@H]2C(c2ccccc2)c2ccccc2)c1` as the compound, how does the “Log 1/Km” value read?
A: Its value is -1.3424.

Q: For `CCOc1ccc2ccc(=O)oc2c1` [ETHOXYCOUMARIN], which “Log 1/Km” value is on record?
A: The value was -3.4771.

Q: Which “Log 1/Km” value does the source give for `NC(=O)N1c2ccccc2C=Cc2ccccc21` [CARBAMAZEPINE] here?
A: Its value is -2.6532.

Q: How did the “Log 1/Km” value turn out when `CN(C)CCC=C1c2ccccc2CCc2ccccc21` [AMITRIPTYLINE] was run?
A: Its value is -1.8407.

Q: With `COc1ccc(C(CN(C)C)C2(O)CCCCC2)cc1` (stereo not drawn) [VENLAFAXINE] as the compound, how does the “Log 1/Km” value read?
A: Its value is 0.0899.

Source: ChEMBL document CHEMBL1142817, “Modeling K(m) values using electrotopological state: substrates for cytochrome P450 3A4-mediated metabolism” (Bioorg Med Chem Lett, 2005)
